{
  "source": "PubChem BioAssay AID2060887",
  "about": "(Molecular Pharmacology Branch, DTP, NCI, 2025);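 further: spheroids exposed to compounds for 7 days before reading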;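 on viability, T/C: 100% = DMSO vehicle control viability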",
  "tested_on": "782815-120-R-J1-PDC complex spheroid viability",
  "assay": "Anticancer human tumor 782815-120-R-J1-PDC patient-derived colon adenocarcinoma cell line growth inhibition [RAS]",
  "conditions": "for IC50: curve of first compound; for viability, T/C: stronger effect = lower value",
  "in_short": "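Multi-cell-type spheroids: tumor cells plus HUVEC endothelial cells and mesenchymal stem cells. RAS-pathway inhibitors were combined with targeted agents, each dosed in half-log steps down from clinical Cmax, or from 10 microM when Cmax was unknown.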",
  "key": {"[1]": {"conditions": "second compound 0.0316 µM, first compound 0.00316 µM"}, "[2]": {"conditions": "second compound 0.0316 µM, first compound 0.01 µM"}, "[3]": {"conditions": "second compound 0.0316 µM, first compound 0.0316 µM"}, "[4]": {"conditions": "second compound 0.0316 µM, first compound 0.1 µM"}, "[5]": {"conditions": "second compound 0.0316 µM, first compound 0.316 µM"}, "[6]": {"conditions": "second compound 0.0316 µM, first compound 1 µM"}, "[7]": {"conditions": "second compound 0.1 µM, first compound 0.00316 µM"}, "[8]": {"conditions": "second compound 0.1 µM, first compound 0.01 µM"}, "[9]": {"conditions": "second compound 0.1 µM, first compound 0.0316 µM"}, "[10]": {"conditions": "second compound 0.1 µM, first compound 0.1 µM"}, "[11]": {"conditions": "second compound 0.1 µM, first compound 0.316 µM"}, "[12]": {"conditions": "second compound 0.1 µM, first compound 1 µM"}, "[13]": {"conditions": "second compound 0.316 µM, first compound 0.00316 µM"}, "[14]": {"conditions": "second compound 0.316 µM, first compound 0.01 µM"}, "[15]": {"conditions": "second compound 0.316 µM, first compound 0.0316 µM"}, "[16]": {"conditions": "second compound 0.316 µM, first compound 0.1 µM"}, "[17]": {"conditions": "second compound 0.316 µM, first compound 0.316 µM"}, "[18]": {"conditions": "second compound 0.316 µM, first compound 1 µM"}, "[19]": {"conditions": "second compound 1 µM, first compound 0.00316 µM"}, "[20]": {"conditions": "second compound 1 µM, first compound 0.01 µM"}, "[21]": {"conditions": "second compound 1 µM, first compound 0.0316 µM"}, "[22]": {"conditions": "second compound 1 µM, first compound 0.1 µM"}, "[23]": {"conditions": "second compound 1 µM, first compound 0.316 µM"}, "[24]": {"conditions": "second compound 1 µM, first compound 1 µM"}},
  "data": [
    {"smiles": "Nc1ccn(C2OC(CO)C(O)C2(F)F)c(=O)n1", "note": "(centres undefined) + C#Cc1c(F)ccc2cc(O)cc(-c3ncc4c(N5CC6CCC(C5)N6)nc(OCC56CCCN5CC(F)C6)nc4c3F)c12", "values": [
      {"measurement": "IC50", "setting": "second compound 0.0316 µM", "value": 94.2, "unit": "nM"},
      {"measurement": "IC50", "setting": "second compound 0.1 µM", "value": 73.9, "unit": "nM"},
      {"measurement": "IC50", "setting": "second compound 0.316 µM", "value": 85.2, "unit": "nM"},
      {"measurement": "IC50", "setting": "second compound 1 µM", "value": 71.4, "unit": "nM"},
      {"measurement": "IC50", "setting": "second compound 3.16 µM", "value": 85.8, "unit": "nM"},
      {"measurement": "IC50", "setting": "second compound 10 µM", "value": 62.7, "unit": "nM"},
      {"measurement": "viability, T/C", "setting": "[1]", "value": 103, "unit": "%"},
      {"measurement": "viability, T/C", "setting": "[2]", "value": 92.8, "unit": "%"},
      {"measurement": "viability, T/C", "setting": "[3]", "value": 64.8, "unit": "%"},
      {"measurement": "viability, T/C", "setting": "[4]", "value": 54, "unit": "%"},
      {"measurement": "viability, T/C", "setting": "[5]", "value": 31.3, "unit": "%"},
      {"measurement": "viability, T/C", "setting": "[6]", "value": 28.6, "unit": "%"},
      {"measurement": "viability, T/C", "setting": "[7]", "value": 101, "unit": "%"},
      {"measurement": "viability, T/C", "setting": "[8]", "value": 91.1, "unit": "%"},
      {"measurement": "viability, T/C", "setting": "[9]", "value": 62.3, "unit": "%"},
      {"measurement": "viability, T/C", "setting": "[10]", "value": 47.8, "unit": "%"},
      {"measurement": "viability, T/C", "setting": "[11]", "value": 29.6, "unit": "%"},
      {"measurement": "viability, T/C", "setting": "[12]", "value": 26.3, "unit": "%"},
      {"measurement": "viability, T/C", "setting": "[13]", "value": 97.8, "unit": "%"},
      {"measurement": "viability, T/C", "setting": "[14]", "value": 92.2, "unit": "%"},
      {"measurement": "viability, T/C", "setting": "[15]", "value": 58.7, "unit": "%"},
      {"measurement": "viability, T/C", "setting": "[16]", "value": 50.2, "unit": "%"},
      {"measurement": "viability, T/C", "setting": "[17]", "value": 37.1, "unit": "%"},
      {"measurement": "viability, T/C", "setting": "[18]", "value": 25.3, "unit": "%"},
      {"measurement": "viability, T/C", "setting": "[19]", "value": 97.9, "unit": "%"},
      {"measurement": "viability, T/C", "setting": "[20]", "value": 81.9, "unit": "%"},
      {"measurement": "viability, T/C", "setting": "[21]", "value": 60.6, "unit": "%"},
      {"measurement": "viability, T/C", "setting": "[22]", "value": 43.5, "unit": "%"},
      {"measurement": "viability, T/C", "setting": "[23]", "value": 38.1, "unit": "%"},
      {"measurement": "viability, T/C", "setting": "[24]", "value": 26.7, "unit": "%"},
      {"measurement": "viability, T/C", "setting": "second compound 3.16 µM, first compound 0.00316 µM", "value": 96.8, "unit": "%"},
      {"measurement": "viability, T/C", "setting": "second compound 3.16 µM, first compound 0.01 µM", "value": 89.7, "unit": "%"},
      {"measurement": "viability, T/C", "setting": "second compound 3.16 µM, first compound 0.0316 µM", "value": 63.1, "unit": "%"},
      {"measurement": "viability, T/C", "setting": "second compound 3.16 µM, first compound 0.1 µM", "value": 49, "unit": "%"},
      {"measurement": "viability, T/C", "setting": "second compound 3.16 µM, first compound 0.316 µM", "value": 36.2, "unit": "%"},
      {"measurement": "viability, T/C", "setting": "second compound 3.16 µM, first compound 1 µM", "value": 28.1, "unit": "%"},
      {"measurement": "viability, T/C", "setting": "second compound 10 µM, first compound 0.00316 µM", "value": 101, "unit": "%"},
      {"measurement": "viability, T/C", "setting": "second compound 10 µM, first compound 0.01 µM", "value": 95.2, "unit": "%"},
      {"measurement": "viability, T/C", "setting": "second compound 10 µM, first compound 0.0316 µM", "value": 61.9, "unit": "%"},
      {"measurement": "viability, T/C", "setting": "second compound 10 µM, first compound 0.1 µM", "value": 42, "unit": "%"},
      {"measurement": "viability, T/C", "setting": "second compound 10 µM, first compound 0.316 µM", "value": 35.6, "unit": "%"},
      {"measurement": "viability, T/C", "setting": "second compound 10 µM, first compound 1 µM", "value": 27.1, "unit": "%"}
    ]},
    {"smiles": "CCN1CCN(Cc2ccc(Nc3ncc(F)c(-c4cc(F)c5nc(C)n(C(C)C)c5c4)n3)nc2)CC1", "note": "+ C=CC(=O)N1CCN(c2nc(OCC3CCCN3C)nc3c(F)c(-c4nc(N)cc(C)c4C(F)(F)F)c(Cl)cc23)C(C)C1", "values": [
      {"measurement": "IC50", "setting": "second compound 0.00316 µM", "value": "> 1000", "unit": "nM"},
      {"measurement": "IC50", "setting": "second compound 0.01 µM", "value": "> 1000", "unit": "nM"},
      {"measurement": "IC50", "setting": "second compound 0.0316 µM", "value": "> 1000", "unit": "nM"},
      {"measurement": "IC50", "setting": "second compound 0.1 µM", "value": "> 1000", "unit": "nM"},
      {"measurement": "IC50", "setting": "second compound 0.316 µM", "value": "> 1000", "unit": "nM"},
      {"measurement": "IC50", "setting": "second compound 1 µM", "value": "> 1000", "unit": "nM"},
      {"measurement": "viability, T/C", "setting": "second compound 0.00316 µM, first compound 0.00316 µM", "value": 95.3, "unit": "%"},
      {"measurement": "viability, T/C", "setting": "second compound 0.00316 µM, first compound 0.01 µM", "value": 98.8, "unit": "%"},
      {"measurement": "viability, T/C", "setting": "second compound 0.00316 µM, first compound 0.0316 µM", "value": 99.3, "unit": "%"},
      {"measurement": "viability, T/C", "setting": "second compound 0.00316 µM, first compound 0.1 µM", "value": 101, "unit": "%"},
      {"measurement": "viability, T/C", "setting": "second compound 0.00316 µM, first compound 0.316 µM", "value": 105, "unit": "%"},
      {"measurement": "viability, T/C", "setting": "second compound 0.00316 µM, first compound 1 µM", "value": 128, "unit": "%"},
      {"measurement": "viability, T/C", "setting": "second compound 0.01 µM, first compound 0.00316 µM", "value": 98.9, "unit": "%"},
      {"measurement": "viability, T/C", "setting": "second compound 0.01 µM, first compound 0.01 µM", "value": 97.2, "unit": "%"},
      {"measurement": "viability, T/C", "setting": "second compound 0.01 µM, first compound 0.0316 µM", "value": 95.8, "unit": "%"},
      {"measurement": "viability, T/C", "setting": "second compound 0.01 µM, first compound 0.1 µM", "value": 98.2, "unit": "%"},
      {"measurement": "viability, T/C", "setting": "second compound 0.01 µM, first compound 0.316 µM", "value": 104, "unit": "%"},
      {"measurement": "viability, T/C", "setting": "second compound 0.01 µM, first compound 1 µM", "value": 118, "unit": "%"},
      {"measurement": "viability, T/C", "setting": "[1]", "value": 102, "unit": "%"},
      {"measurement": "viability, T/C", "setting": "[2]", "value": 105, "unit": "%"},
      {"measurement": "viability, T/C", "setting": "[3]", "value": 99.5, "unit": "%"},
      {"measurement": "viability, T/C", "setting": "[4]", "value": 103, "unit": "%"},
      {"measurement": "viability, T/C", "setting": "[5]", "value": 108, "unit": "%"},
      {"measurement": "viability, T/C", "setting": "[6]", "value": 118, "unit": "%"},
      {"measurement": "viability, T/C", "setting": "[7]", "value": 93.4, "unit": "%"},
      {"measurement": "viability, T/C", "setting": "[8]", "value": 96.1, "unit": "%"},
      {"measurement": "viability, T/C", "setting": "[9]", "value": 106, "unit": "%"},
      {"measurement": "viability, T/C", "setting": "[10]", "value": 103, "unit": "%"},
      {"measurement": "viability, T/C", "setting": "[11]", "value": 108, "unit": "%"},
      {"measurement": "viability, T/C", "setting": "[12]", "value": 116, "unit": "%"},
      {"measurement": "viability, T/C", "setting": "[13]", "value": 96.5, "unit": "%"},
      {"measurement": "viability, T/C", "setting": "[14]", "value": 96.5, "unit": "%"},
      {"measurement": "viability, T/C", "setting": "[15]", "value": 102, "unit": "%"},
      {"measurement": "viability, T/C", "setting": "[16]", "value": 99.3, "unit": "%"},
      {"measurement": "viability, T/C", "setting": "[17]", "value": 111, "unit": "%"},
      {"measurement": "viability, T/C", "setting": "[18]", "value": 117, "unit": "%"},
      {"measurement": "viability, T/C", "setting": "[19]", "value": 92, "unit": "%"},
      {"measurement": "viability, T/C", "setting": "[20]", "value": 90.8, "unit": "%"},
      {"measurement": "viability, T/C", "setting": "[21]", "value": 104, "unit": "%"},
      {"measurement": "viability, T/C", "setting": "[22]", "value": 96.1, "unit": "%"},
      {"measurement": "viability, T/C", "setting": "[23]", "value": 108, "unit": "%"},
      {"measurement": "viability, T/C", "setting": "[24]", "value": 123, "unit": "%"}
    ]}
  ]
}
